Results reported in PMC3542813, “High-throughput screening with the Eimeria tenella CDC2-related kinase2/cyclin complex EtCRK2/EtCYC3a” (Microbiology, 2012).
Read-outs that look alike come from different tables or passages of the source. Each block holds one compound with its values, some of them ahead of it.

How the values were obtained:
EtCRK2/XlRINGO = EtCRK2/XlRINGO (Eimeria tenella, UniProt Q6R8F0); assay: biochemical
Source text: Therefore, we tested XlRINGO as an activator of EtCRK2.
(§1) In order to discover specific inhibitors of EtCRK2 we performed an in vitro screening campaign supported by an in silico hit enrichment (Fig. 4).

EtCRK2/EtCYC3a = EtCRK2/EtCYC3a (Eimeria tenella, UniProt Q6R8F0); assay: TR-FRET kinase assay, EtCRK2 activated by EtCYC3a; type: biochemical
Source text: as §1

HsCDK2/HsCYCA = HsCDK2/HsCYCA (Homo sapiens, UniProt P24941); assay: TR-FRET kinase assay, human CDK2 activated by human cyclin A; type: biochemical; details: for IC50 / Ki: mean±SD, n = 3–6
EtCRK2 = test system: EtCRK2; design: method as in Engels et al., 2010; details: ref Engels et al., 2010, cited from earlier work
[1] = test system: E. tenella schizont development; design: method as in Engels et al., 2010; details: ref Engels et al., 2010, cited from earlier work
host cell = test system: host cell; design: method as in Engels et al., 2010; details: ref Engels et al., 2010; cited from earlier work
[2] = target: Eimeria tenella cyclin-like 3a (EtCYC3a), maltose binding protein fusion (Eimeria tenella)
[3] = lead structures, mean±SD, n = 3–6, read-out: IC50 EtCRK2/ XlRINGO
[4] = lead structures, mean±SD, n = 3–6, read-out: Ki EtCRK2/ XlRINGO
[5] = lead structures, mean±SD, n = 3–6, read-out: IC50 EtCRK2/ EtCYC3a
[6] = lead structures, mean±SD, n = 3–6, read-out: Ki EtCRK2/ ETCYC3a
[7] = standard CDK inhibitors, mean±SD, n = 3–6, read-out: IC50 EtCRK2/XlRINGO
[8] = standard CDK inhibitors, mean±SD, n = 3–6, read-out: Ki EtCRK2/XlRINGO
[9] = standard CDK inhibitors, mean±SD, n = 3–6, read-out: IC50 EtCRK2/EtCYC3a
[10] = standard CDK inhibitors, mean±SD, n = 3–6, read-out: Ki EtCRK2/EtCYC3a

Compound: Cc1cc(O)c2c(c1O)C(=O)C(Cl)=C(Cl)C2=O [BES130131, 2,3-dichloro-5,8-dihydroxy-6-methyl-naphthalene-1,4-dione]
- IC50 (EtCRK2/XlRINGO; [3]): 14800 ± 8410 nM
- Ki (EtCRK2/XlRINGO; [4]): 5250 ± 200 nM
- IC50 (EtCRK2/EtCYC3a; [5]): 18100 ± 1030 nM
- Ki (EtCRK2/EtCYC3a; [6]): 6870 ± 1740 nM
- IC50 (HsCDK2/HsCYCA; lead structures): 14.4 ± 1.52 µM
- Ki (HsCDK2/HsCYCA; lead structures): 3350 ± 1060 nM

Compound: OC(CSc1ccccc1)CN1CCC(Nc2nccc(C(F)(F)F)n2)CC1 (centres unmarked) [BES124764, 1-phenylsulfanyl-3-[4-[[4-(trifluoromethyl)pyrimidin-2-yl]amino]-1-piperidyl]propane-2-ol]
- IC50 (EtCRK2/XlRINGO; [3]): 18600 ± 3720 nM
- Ki (EtCRK2/XlRINGO; [4]): 4330 ± 920 nM
- IC50 (EtCRK2/EtCYC3a; [5]): 7350 ± 1820 nM
- Ki (EtCRK2/EtCYC3a; [6]): 3420 ± 1080 nM
- times more active towards the two E. tenella complexes than towards the HsCDK2/HsCYCA complex (HsCDK2/HsCYCA; EtCRK2/XlRINGO and EtCRK2/EtCYC3a versus HsCDK2/HsCYCA): 25–30 times
- IC50 (HsCDK2/HsCYCA; lead structures): > 200 µM
- Ki (HsCDK2/HsCYCA; lead structures): 95300 ± 19100 nM
- selectivity for EtCRK2 versus HsCDK2 (HsCDK2/HsCYCA; result in words): selective for EtCRK2

Compound: O=C1Nc2ccc(S(=O)(=O)O)cc2/C1=C1/Nc2ccccc2C1=O [Indirubin-5′-sulfonic acid, (3Z)-2-oxo-3-(3-oxo-1H-indol-2-ylidene)-1H-indole-5-sulfonic acid]
- IC50 (EtCRK2/XlRINGO; [7]): 670 ± 180 nM
- Ki (EtCRK2/XlRINGO; [8]): 170 ± 30 nM
- IC50 (EtCRK2/EtCYC3a; [9]): 940 ± 310 nM
- Ki (EtCRK2/EtCYC3a; [10]): 240 ± 100 nM

Compound: CC(C)C(CO)Nc1nc(Nc2cccc(Cl)c2)c2ncn(C(C)C)c2n1 (centres unmarked) [Purvalanol A, 2-[[6-[(3-chlorophenyl)amino]-9-isopropyl-purin-2-yl]amino]-3-methyl-butan-1-ol]
- IC50 (EtCRK2/XlRINGO): 800 ± 110 nM
- Ki (EtCRK2/XlRINGO): 80 ± 10 nM
- IC50 (EtCRK2/EtCYC3a; [9]): 1030 ± 180 nM
- Ki (EtCRK2/EtCYC3a; [10]): 360 ± 130 nM
- IC50 (HsCDK2/HsCYCA; standard CDK inhibitors): 0.14 ± 0.04 µM
- Ki (HsCDK2/HsCYCA; standard CDK inhibitors): 40 ± 1 nM

Compound: CN1CC[C@H](c2c(O)cc(O)c3c(=O)cc(-c4ccccc4Cl)oc23)[C@H](O)C1 [Flavopiridole, 2-(2-chlorophenyl)-5,7-dihydroxy-8-[(3S,4R)-3-hydroxy-1-methyl-4-piperidinyl]-4H-1-benzopyran-4-one]
- IC50 (EtCRK2; read-out: IC50 EtCRK2 in enzyme assays): 33 ± 10 nM
- Ki (EtCRK2; read-out: Ki EtCRK2 in enzyme assays): 11 ± 3 nM
- inhibition of E. tenella schizont development ([1]; at concentrations of 150 and 300 nM): fully inhibits
- inhibition of E. tenella schizont development ([1]; concentrations below 80 nm): no inhibitory effects
- concentrations at which host cell toxicity is observed (host cell): above 600 nM

Compound: O=C1Cc2c([nH]c3ccc([N+](=O)[O-])cc23)-c2ccccc2N1 [Alsterpaullone, 9-nitro-7,12-dihydro-5H-indolo[3,2-d][1]benzazepin-6-one]
- IC50 (EtCRK2/XlRINGO; [7]): 220 ± 60 nM
- Ki (EtCRK2/XlRINGO; [8]): 70 ± 2 nM
- IC50 (EtCRK2/EtCYC3a; [9]): 640 ± 340 nM
- Ki (EtCRK2/EtCYC3a; [10]): 210 ± 40 nM

Compound: Nc1cc(S(=O)(=O)O)c2cccnc2c1O [BES312351, 7-amino-8-hydroxy-quinoline-5-sulfonic acid hydrate]
- IC50 (EtCRK2/XlRINGO; [3]): 7130 ± 2490 nM
- Ki (EtCRK2/XlRINGO; [4]): 940 ± 310 nM
- IC50 (EtCRK2/EtCYC3a): 6500 ± 2490 nM
- Ki (EtCRK2/EtCYC3a): 4670 ± 2020 nM
- IC50 (HsCDK2/HsCYCA; lead structures): 5.16 ± 2.85 µM
- Ki (HsCDK2/HsCYCA; lead structures): 780 ± 610 nM

Compound: NC1=NC(=O)/C(=C2\CCNC(=O)c3[nH]c(Br)cc32)N1 [10-Z-Hymendialdisine, (4Z)-4-(2-amino-4-oxo-1H-imidazol-5-ylidene)-2-bromo-1,5,6,7-tetrahydropyrrolo[2,3-c]azepin-8-one]
- IC50 (EtCRK2/XlRINGO; [7]): 440 ± 80 nM
- Ki (EtCRK2/XlRINGO; [8]): 50 ± 20 nM
- IC50 (EtCRK2/EtCYC3a): 930 ± 40 nM
- Ki (EtCRK2/EtCYC3a): 190 ± 10 nM
- IC50 (HsCDK2/HsCYCA; standard CDK inhibitors): 0.12 ± 0.02 µM
- Ki (HsCDK2/HsCYCA; standard CDK inhibitors): 30 ± 1 nM

Compound: CN[C@@H]1C[C@H]2O[C@@](C)([C@@H]1OC)n1c3ccccc3c3c4c(c5c6ccccc6n2c5c31)C(=O)NC4 [Staurosporine, (9S,10R,11R,13R)-2,3,10,11,12,13-hexahydro-10-methoxy-9-methyl-11-(methylamino)-9,13-epoxy-1H,9H-diindolo[1,2,3-gh:3′,2′,1′-lm]pyrrolo[3,4-j][1,7]benzodiazonin-1-one]
- IC50 (EtCRK2/XlRINGO): 90 ± 10 nM
- Ki (EtCRK2/XlRINGO): 20 ± 10 nM
- IC50 (EtCRK2/EtCYC3a): 190 ± 90 nM
- Ki (EtCRK2/EtCYC3a): 530 ± 200 nM

- specific activity of EtCRK2 in the EtCRK2/EtCYC3a complex, TR-FRET kinase assay with fluorescein-labelled histone H1 substrate [2]: 0.15 µmol/min/mg
Compound: Eimeria tenella CDC2-related kinase 2 (EtCRK2), His-tagged (enzyme)
